The text below walks through data of PubChem BioAssay (NCI).

Some test systems named below: A549 NSCLC; BT-549 breast; HOP-62 NSCLC; HS 578T breast; HT29 colon; IGROV1 ovarian; KM12 colon; MALME-3M melanoma; MDA-N; MOLT-4 leukemia; NCI/ADR-RES ovarian; OVCAR-4 ovarian; OVCAR-8 ovarian; RPMI-8226 leukemia; SK-MEL-2 melanoma; SN12C renal; SW-620 colon; U251 CNS; UACC-257 melanoma; SNB-75 CNS.
What all share (experiment): inhibition of tumour cell growth, NCI panel, 48 h

Each structure is given as a SMILES string.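 Step 1: Grow cells in 96-well plates. Step 2: Expose to compound for 48 hours at 5 concentrations. Step 3: Interpolate endpoints linearly; if unreached, use highest concentration. TGI: total growth inhibition.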 Where a SMILES comes first, the peptide text is derived from it. Bridges are numbered along the chain shown (N, C = ends). [ ]: non-standard residue; d: D form. The star is where a group is joined. Cbz = O=C(OCc1ccccc1)*; Aib = CC(C)(N)C(=O)O; OBn = c1ccc(CO*)cc1; βAla = NCCC(=O)O

On to `CCC1c2[nH]c3ccccc3c2C[C@H]2C(=O)NC(CCC(=O)OC(C)(C)C)C(=O)N12` (some centres undefined), for which the TGI in the assay on A549 NSCLC, with BT-549 breast, in the assay on HOP-62 NSCLC, in the assay with HS 578T breast, in the assay on HT29 colon and in the assay with IGROV1 ovarian was above 100 µM each time. The TGI with KM12 colon, in the assay with MALME-3M melanoma, in the assay on MDA-N, with MOLT-4 leukemia, with NCI/ADR-RES ovarian and in the assay on OVCAR-4 ovarian was above 100 µM throughout. In addition, the TGI with OVCAR-8 ovarian was above 100 µM; with RPMI-8226 leukemia, 97.9 µM; in the assay with SK-MEL-2 melanoma, above 100 µM; with SN12C renal, above 100 µM; in the assay on SW-620 colon, above 100 µM; in the assay on U251 CNS it was above 100 µM. The TGI in the assay with UACC-257 melanoma was above 100 µM.

Take `O=C(c1ccc(Cl)cc1Cl)N(C(=O)N1CCCCC1)c1ccccc1`: the TGI with BT-549 breast, in the assay on HS 578T breast, in the assay on HT29 colon, with IGROV1 ovarian, in the assay with KM12 colon and in the assay on MALME-3M melanoma was above 100 µM throughout. Also, the TGI in the assay with MDA-N, with MOLT-4 leukemia, in the assay on NCI/ADR-RES ovarian, in the assay with OVCAR-8 ovarian, with RPMI-8226 leukemia and in the assay with SK-MEL-2 melanoma was above 100 µM throughout. Also, the TGI in the assay with SN12C renal, in the assay with SW-620 colon, with U251 CNS and with UACC-257 melanoma was above 100 µM throughout.

On to `O=C(CCc1ccc(O)cc1)NCCc1ccc(O)cc1`, for which the TGI in the assay on A549 NSCLC, in the assay with BT-549 breast, in the assay on HOP-62 NSCLC, with HS 578T breast, in the assay on HT29 colon and in the assay on IGROV1 ovarian was above 100 µM in each case. Further, the TGI with KM12 colon, with MALME-3M melanoma, in the assay on MDA-N, in the assay with MOLT-4 leukemia, with NCI/ADR-RES ovarian and in the assay with OVCAR-4 ovarian was above 100 µM throughout. Also, the TGI with OVCAR-8 ovarian, in the assay on SK-MEL-2 melanoma, with SN12C renal, with U251 CNS and in the assay with UACC-257 melanoma was above 100 µM throughout.

In the case of `Nc1nc(Cl)cc(NCC2(CO)CC(OCc3ccccc3)C2)n1` (centres undefined), the TGI with A549 NSCLC, in the assay with BT-549 breast, in the assay with HOP-62 NSCLC, in the assay with HS 578T breast, with HT29 colon and in the assay with IGROV1 ovarian was above 100 µM each time. Besides, the TGI with KM12 colon, with MALME-3M melanoma, with MDA-N, with NCI/ADR-RES ovarian, in the assay on OVCAR-4 ovarian and with OVCAR-8 ovarian was above 100 µM each time. The TGI in the assay with RPMI-8226 leukemia is above 100 µM; in the assay on SK-MEL-2 melanoma it was above 100 µM; in the assay on SN12C renal, above 100 µM; in the assay with SNB-75 CNS, 85.2 µM; with SW-620 colon, above 100 µM; with U251 CNS, above 100 µM. Further, in the assay with UACC-257 melanoma, the TGI was above 100 µM.

As for `CC1=C2C3=C(C)C(=O)C(C)(C)CC[C@@]3(C)[C@]2(C)CCC(C)(C)C1=O`, the TGI in the assay with A549 NSCLC, in the assay on BT-549 breast, with HOP-62 NSCLC, in the assay with HS 578T breast, with HT29 colon and in the assay on IGROV1 ovarian was above 100 µM throughout. Besides, the TGI with KM12 colon, in the assay with MALME-3M melanoma, in the assay with MDA-N, in the assay on MOLT-4 leukemia, with NCI/ADR-RES ovarian and in the assay with OVCAR-4 ovarian was above 100 µM in each case. The TGI in the assay on OVCAR-8 ovarian, in the assay with RPMI-8226 leukemia, in the assay on SN12C renal, with SNB-75 CNS, in the assay with SW-620 colon and in the assay with U251 CNS was above 100 µM each time. The compound also came in with a TGI with UACC-257 melanoma above 100 µM.

For the compound `CC1(C)NC(=O)C(NC(=O)C(CC(=O)OCc2ccccc2)NC(=O)OCc2ccccc2)CCCCNC(=O)CCNC1=O` (centres undefined) (Cbz-D(OBn)K[Aib][βAla]; lactam 2-C; configuration not given here), the TGI with A549 NSCLC, in the assay with BT-549 breast, in the assay with HOP-62 NSCLC, in the assay with HS 578T breast, in the assay with HT29 colon and with IGROV1 ovarian was above 100 µM throughout. Besides, the TGI with KM12 colon, in the assay on MALME-3M melanoma, in the assay with MDA-N, with MOLT-4 leukemia, in the assay with NCI/ADR-RES ovarian and in the assay with OVCAR-4 ovarian was above 100 µM each time. The TGI in the assay with OVCAR-8 ovarian, in the assay on RPMI-8226 leukemia, with SN12C renal, in the assay with SNB-75 CNS, in the assay on SW-620 colon and with U251 CNS was above 100 µM in each case.

On to `Oc1cc(O)c2c(c1)O[C@H](c1cc(O)c(O)c(O)c1)[C@H](O)C2`, for which the TGI in the assay on A549 NSCLC was 76.7 µM; in the assay on BT-549 breast, 56.6 µM; with HOP-62 NSCLC it was 37.3 µM; in the assay with HS 578T breast, above 100 µM; in the assay with IGROV1 ovarian, 41.9 µM; in the assay with MALME-3M melanoma, above 100 µM. The TGI with MDA-N was found to be 40.9 µM; in the assay with MOLT-4 leukemia, 32.9 µM; with NCI/ADR-RES ovarian, 63.8 µM; with OVCAR-4 ovarian it was 46.6 µM; with OVCAR-8 ovarian it was 29.6 µM; in the assay with RPMI-8226 leukemia, 31.7 µM. The TGI in the assay on SK-MEL-2 melanoma is 28.9 µM; in the assay with SN12C renal it was 37 µM; with SNB-75 CNS, 98 µM; with SW-620 colon it was 32.9 µM; in the assay on U251 CNS it was 30.4 µM; in the assay with UACC-257 melanoma it was above 100 µM.

Regarding `Cc1nc(N)c(N2CCNCC2)c(=O)[nH]1`, the TGI in the assay on A549 NSCLC, in the assay on BT-549 breast, in the assay with HOP-62 NSCLC, with HS 578T breast, in the assay with HT29 colon and in the assay on KM12 colon was above 100 µM each time. Further, the TGI in the assay on MALME-3M melanoma, in the assay with MDA-N, with MOLT-4 leukemia, with NCI/ADR-RES ovarian, in the assay on OVCAR-8 ovarian and with RPMI-8226 leukemia was above 100 µM each time. For the same compound, the TGI in the assay with SK-MEL-2 melanoma, in the assay with SN12C renal, with SNB-75 CNS, in the assay with SW-620 colon, in the assay on U251 CNS and in the assay on UACC-257 melanoma was above 100 µM each time.
